Experimental data taken from ChEMBL document CHEMBL3608225, “Harpagoside Inhibits RANKL-Induced Osteoclastogenesis via Syk-Btk-PLCγ2-Ca(2+) Signaling Pathway and Prevents Inflammation-Mediated Bone Loss” (J Nat Prod, 2015).
The source made the active and inactive calls.

Key:
[1] = molecular target: T1, Tumor necrosis factor ligand superfamily member 11 (Mus musculus) (UniProt O35235); experiment: Inhibition of RANKL-mediated osteoclastogenesis in mouse BMMC assessed as reduction of TRAP mRNA expression at 100 uM after 12 to 48 hrs by RT-PCR analysis; type: functional
T1 sequence (whole entry): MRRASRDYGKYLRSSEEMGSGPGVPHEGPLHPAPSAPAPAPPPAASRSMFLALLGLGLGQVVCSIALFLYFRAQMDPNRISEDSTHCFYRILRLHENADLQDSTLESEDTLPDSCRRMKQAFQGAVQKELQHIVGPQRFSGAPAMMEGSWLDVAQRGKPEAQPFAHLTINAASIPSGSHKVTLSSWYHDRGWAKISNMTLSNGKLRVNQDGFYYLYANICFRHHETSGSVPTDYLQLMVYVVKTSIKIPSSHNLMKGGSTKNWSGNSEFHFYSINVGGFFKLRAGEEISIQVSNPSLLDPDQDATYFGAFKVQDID

[2] = molecular target: T1, Tumor necrosis factor ligand superfamily member 11 (Mus musculus); experiment: Inhibition of RANKL-mediated JNK phosphorylation in mouse BMMC at 100 uM after 1 hr by Western blot analysis
[3] = molecular target: T1, Tumor necrosis factor ligand superfamily member 11 (Mus musculus); experiment: Inhibition of RANKL-mediated osteoclastogenesis in mouse BMMC assessed as reduction of NFATc1 mRNA expression at 100 uM after 12 to 48 hrs by RT-PCR analysis; type: functional
Osteoclast = experiment: Inhibition of bone resorption in mouse mature osteoclasts after 24 hrs by light microscopic analysis; type: functional, cell-based
Mus musculus [4] = experiment: Inhibition of LPS-induced bone loss in ICR mouse assessed as restoration of Tb.Sp in femurs at 10 mg/kg, po after 10 days by morphometric analysis; type: functional, organism-based
[5] = molecular target: T1, Tumor necrosis factor ligand superfamily member 11 (Mus musculus); experiment: Inhibition of RANKL-mediated osteoclastogenesis in mouse BMMC assessed as reduction of CTR mRNA expression at 100 uM after 12 to 48 hrs by RT-PCR analysis; type: functional
[6] = molecular target: T1, Tumor necrosis factor ligand superfamily member 11 (Mus musculus); experiment: Inhibition of RANKL-mediated osteoclastogenesis in mouse BMMC assessed as reduction of cathepsin K mRNA expression at 100 uM after 12 to 48 hrs by RT-PCR analysis; type: functional
Mus musculus [7] = experiment: Inhibition of LPS-induced bone loss in ICR mouse assessed as restoration of BV/TV in femurs at 10 mg/kg, po after 10 days by morphometric analysis; type: functional, organism-based
[8] = molecular target: Tyrosine-protein kinase BTK (Mus musculus) (UniProt P35991); experiment: Inhibition of RANKL-mediated Btk phosphorylation in mouse BMMC at 100 uM after 1 hr by Western blot analysis
Tyrosine-protein kinase BTK (Mus musculus), sequence (P35991 whole entry): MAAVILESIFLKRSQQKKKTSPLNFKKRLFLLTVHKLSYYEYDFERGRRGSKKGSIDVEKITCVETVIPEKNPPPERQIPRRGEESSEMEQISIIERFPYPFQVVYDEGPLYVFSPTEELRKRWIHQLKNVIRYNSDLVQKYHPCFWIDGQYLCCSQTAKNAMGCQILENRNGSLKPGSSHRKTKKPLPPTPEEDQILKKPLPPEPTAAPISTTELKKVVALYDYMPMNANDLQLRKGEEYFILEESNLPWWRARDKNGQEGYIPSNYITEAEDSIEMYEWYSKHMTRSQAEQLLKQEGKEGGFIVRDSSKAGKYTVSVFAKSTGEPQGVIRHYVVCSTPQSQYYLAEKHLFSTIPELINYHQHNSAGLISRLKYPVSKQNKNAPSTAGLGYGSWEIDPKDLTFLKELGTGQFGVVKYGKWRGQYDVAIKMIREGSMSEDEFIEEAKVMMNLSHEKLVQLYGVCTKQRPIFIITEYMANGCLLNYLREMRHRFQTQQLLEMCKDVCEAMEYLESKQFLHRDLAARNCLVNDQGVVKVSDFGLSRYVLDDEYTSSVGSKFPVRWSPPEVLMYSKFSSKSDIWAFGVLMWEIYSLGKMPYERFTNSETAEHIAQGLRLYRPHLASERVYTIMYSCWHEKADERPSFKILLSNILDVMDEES

Mus musculus [9] = experiment: Inhibition of LPS-induced bone loss in ICR mouse assessed as reduction of RANKL/OPG ratio in serum level at 10 mg/kg, po after 10 days by ELISA; type: functional, organism-based
[10] = Cytotoxicity against mouse BMMC assessed as cell viability after 3 days by XTT assay; settings: 72 h
[11] = molecular target: T1, Tumor necrosis factor ligand superfamily member 11 (Mus musculus); experiment: Inhibition of RANKL-mediated osteoclastogenesis in mouse BMMC assessed as reduction of beta3-integrin mRNA expression at 100 uM after 12 to 48 hrs by RT-PCR analysis; type: functional
[12] = molecular target: T2, 1-phosphatidylinositol 4,5-bisphosphate phosphodiesterase gamma-2 (Mus musculus) (UniProt Q8CIH5); experiment: Inhibition of RANKL-mediated PLCgamma2 phosphorylation in mouse BMMC at 100 uM after 1 hr by Western blot analysis
T2 sequence (whole entry): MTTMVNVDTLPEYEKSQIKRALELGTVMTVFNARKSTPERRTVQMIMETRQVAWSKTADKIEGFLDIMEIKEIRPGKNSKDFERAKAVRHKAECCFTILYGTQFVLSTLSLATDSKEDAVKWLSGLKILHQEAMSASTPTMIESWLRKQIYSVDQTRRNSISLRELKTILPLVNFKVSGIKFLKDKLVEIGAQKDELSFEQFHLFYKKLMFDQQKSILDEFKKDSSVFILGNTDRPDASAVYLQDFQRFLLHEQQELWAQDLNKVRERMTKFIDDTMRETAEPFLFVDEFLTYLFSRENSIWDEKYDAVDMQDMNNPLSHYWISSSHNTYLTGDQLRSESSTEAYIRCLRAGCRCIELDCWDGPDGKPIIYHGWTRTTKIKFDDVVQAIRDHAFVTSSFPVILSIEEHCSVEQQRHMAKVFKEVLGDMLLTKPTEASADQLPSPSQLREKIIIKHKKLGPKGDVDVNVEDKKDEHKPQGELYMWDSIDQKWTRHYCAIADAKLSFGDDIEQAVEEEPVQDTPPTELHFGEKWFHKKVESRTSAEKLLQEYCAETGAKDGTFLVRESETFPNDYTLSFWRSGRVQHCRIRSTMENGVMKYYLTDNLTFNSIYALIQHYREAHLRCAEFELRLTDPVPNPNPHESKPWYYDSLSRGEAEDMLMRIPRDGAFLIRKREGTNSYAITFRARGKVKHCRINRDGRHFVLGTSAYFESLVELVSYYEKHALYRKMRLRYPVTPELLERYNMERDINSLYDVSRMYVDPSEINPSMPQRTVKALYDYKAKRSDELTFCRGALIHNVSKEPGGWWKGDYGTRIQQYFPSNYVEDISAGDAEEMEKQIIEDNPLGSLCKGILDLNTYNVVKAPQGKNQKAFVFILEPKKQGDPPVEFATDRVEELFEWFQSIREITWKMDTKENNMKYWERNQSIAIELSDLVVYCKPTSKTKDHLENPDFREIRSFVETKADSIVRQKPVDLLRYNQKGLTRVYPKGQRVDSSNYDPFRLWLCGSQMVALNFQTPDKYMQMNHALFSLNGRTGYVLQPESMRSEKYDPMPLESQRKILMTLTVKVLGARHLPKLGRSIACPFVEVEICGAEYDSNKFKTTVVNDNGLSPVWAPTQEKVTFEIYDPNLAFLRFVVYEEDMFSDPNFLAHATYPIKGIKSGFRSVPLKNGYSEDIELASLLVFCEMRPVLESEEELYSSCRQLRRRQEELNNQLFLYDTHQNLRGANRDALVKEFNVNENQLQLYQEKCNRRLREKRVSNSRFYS

[13] = molecular target: T1, Tumor necrosis factor ligand superfamily member 11 (Mus musculus); experiment: Inhibition of RANKL-mediated osteoclast differentiation in mouse BMMC assessed as disruption of F-actin ring formation after 3 days using phalloidin and DAPI staining; type: functional
Mus musculus [14] = experiment: Inhibition of LPS-induced bone loss in ICR mouse assessed as restoration of bone loss in femurs at 10 mg/kg, po after 10 days by hematoxylin and eosin staining; type: functional, organism-based
[15] = molecular target: T1, Tumor necrosis factor ligand superfamily member 11 (Mus musculus); experiment: Inhibition of RANKL-mediated osteoclast differentiation in mouse BMMC assessed as formation of TRAP-positive osteoclasts after 4 days; type: functional
[16] = molecular target: Tyrosine-protein kinase SYK (Mus musculus) (UniProt P48025); experiment: Inhibition of RANKL-mediated Syk phosphorylation in mouse BMMC at 100 uM after 1 hr by Western blot analysis
Tyrosine-protein kinase SYK (Mus musculus), sequence (P48025 whole entry, looked up): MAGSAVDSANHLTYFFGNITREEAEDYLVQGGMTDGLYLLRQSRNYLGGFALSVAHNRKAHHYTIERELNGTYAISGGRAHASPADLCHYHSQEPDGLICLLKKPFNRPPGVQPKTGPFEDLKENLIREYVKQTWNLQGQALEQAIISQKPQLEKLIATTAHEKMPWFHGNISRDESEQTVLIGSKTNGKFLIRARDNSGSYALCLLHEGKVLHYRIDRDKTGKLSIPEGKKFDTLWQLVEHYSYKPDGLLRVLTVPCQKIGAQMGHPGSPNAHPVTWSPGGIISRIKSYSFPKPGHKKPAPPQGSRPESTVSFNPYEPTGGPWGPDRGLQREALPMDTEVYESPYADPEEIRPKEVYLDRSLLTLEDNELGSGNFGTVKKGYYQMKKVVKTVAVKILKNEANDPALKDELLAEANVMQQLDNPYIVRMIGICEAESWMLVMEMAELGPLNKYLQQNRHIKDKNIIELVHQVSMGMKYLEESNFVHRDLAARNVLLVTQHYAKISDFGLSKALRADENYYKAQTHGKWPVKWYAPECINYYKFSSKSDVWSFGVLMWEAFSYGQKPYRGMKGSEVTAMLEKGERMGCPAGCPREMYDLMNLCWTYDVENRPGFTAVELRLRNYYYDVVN

Mus musculus [17] = experiment: Inhibition of LPS-induced bone loss in ICR mouse assessed as restoration of Tb.Th in femurs at 10 mg/kg, po after 10 days by morphometric analysis; type: functional, organism-based
[18] = molecular target: T1, Tumor necrosis factor ligand superfamily member 11 (Mus musculus); experiment: Inhibition of RANKL-mediated osteoclastogenesis in mouse BMMC assessed as reduction of c-Fos protein expression at 100 uM after 12 to 48 hrs by Western blot analysis; type: functional
Mus musculus [19] = experiment: Inhibition of LPS-induced bone loss in ICR mouse assessed as restoration of Tb.N in femurs at 10 mg/kg, po after 10 days by morphometric analysis; type: functional, organism-based
Mus musculus [20] = experiment: Inhibition of ovariectomized-induced bone loss in C57BL/6 mouse assessed as CTX-I level in serum at 10 mg/kg, po administered every other day for 28 days by ELISA; type: functional, organism-based
[21] = molecular target: T1, Tumor necrosis factor ligand superfamily member 11 (Mus musculus); experiment: Inhibition of RANKL-mediated osteoclastogenesis in mouse BMMC assessed as reduction of amplitude and frequency of Ca2+ oscillations at 100 uM after 24 hrs by Fura-2/AM fluorescence assay; type: functional
Mus musculus [22] = experiment: Inhibition of LPS-induced bone loss in ICR mouse assessed as restoration of number of osteoclasts in femurs at 10 mg/kg, po after 10 days; type: functional, organism-based
Mus musculus [23] = experiment: Inhibition of ovariectomized-induced bone loss in C57BL/6 mouse assessed as restoration of Tb.N in femurs at 10 mg/kg, po administered every other day for 28 days by morphometric analysis; type: functional, organism-based
[24] = molecular target: T1, Tumor necrosis factor ligand superfamily member 11 (Mus musculus); experiment: Inhibition of RANKL-mediated osteoclastogenesis in mouse BMMC assessed as reduction of OSCAR mRNA expression at 100 uM after 12 to 48 hrs by RT-PCR analysis; type: functional
Mus musculus [25] = experiment: Inhibition of ovariectomized-induced bone loss in C57BL/6 mouse assessed as restoration number of osteoclasts in femurs at 10 mg/kg, po administered every other day for 28 days; type: functional, organism-based
Mus musculus [26] = experiment: Inhibition of ovariectomized-induced bone loss in C57BL/6 mouse assessed as restoration of Tb.Sp in femurs at 10 mg/kg, po administered every other day for 28 days by morphometric analysis; type: functional, organism-based
[27] = molecular target: T1, Tumor necrosis factor ligand superfamily member 11 (Mus musculus); experiment: Inhibition of RANKL-mediated osteoclastogenesis in mouse BMMC assessed as reduction of DC-STAMP mRNA expression at 100 uM after 12 to 48 hrs by RT-PCR analysis; type: functional
Mus musculus [28] = experiment: Inhibition of ovariectomized-induced bone loss in C57BL/6 mouse assessed as reduction of loss of bone mineral density at 10 mg/kg, po administered every other day for 28 days by micro-CT analysis; type: functional, organism-based
Mus musculus [29] = experiment: Inhibition of ovariectomized-induced bone loss in C57BL/6 mouse assessed as restoration of BV/TV in femurs at 10 mg/kg, po administered every other day for 28 days by morphometric analysis; type: functional, organism-based
[30] = molecular target: T1, Tumor necrosis factor ligand superfamily member 11 (Mus musculus); experiment: Inhibition of RANKL-mediated osteoclastogenesis in mouse BMMC assessed as reduction of NFATc1 protein expression at 100 uM after 12 to 48 hrs by Western blot analysis; type: functional
Mus musculus [31] = experiment: Inhibition of LPS-induced bone loss in ICR mouse assessed as prevention of loss in trabecular bone in femurs at 10 mg/kg, po after 10 days by micro-CT analysis; type: functional, organism-based; settings: Trabecula
Mus musculus [32] = experiment: Inhibition of LPS-induced bone loss in ICR mouse assessed as reduction of CTX-I in serum at 10 mg/kg, po after 10 days by ELISA; type: functional, organism-based
[33] = molecular target: T1, Tumor necrosis factor ligand superfamily member 11 (Mus musculus); experiment: Inhibition of RANKL-mediated osteoclastogenesis in mouse BMMC assessed as reduction of c-Fos mRNA expression at 100 uM after 12 to 48 hrs by RT-PCR analysis; type: functional
Mus musculus [34] = experiment: Inhibition of ovariectomized-induced bone loss in C57BL/6 mouse assessed as restoration of bone loss in femurs at 10 mg/kg, po administered every other day for 28 days by hematoxylin and eosin staining; type: functional, organism-based
Mus musculus [35] = experiment: Inhibition of ovariectomized-induced bone loss in C57BL/6 mouse assessed as restoration of osteoclast formation in femurs at 10 mg/kg, po administered every other day for 28 days by hematoxylin and eosin staining; type: functional, organism-based
Mus musculus [36] = experiment: Inhibition of LPS-induced bone loss in ICR mouse assessed as restoration of osteoclast formation in femurs at 10 mg/kg, po after 10 days by hematoxylin and eosin staining; type: functional, organism-based
[37] = molecular target: T1, Tumor necrosis factor ligand superfamily member 11 (Mus musculus); experiment: Inhibition of RANKL-mediated ERK phosphorylation in mouse BMMC at 100 uM after 1 hr by Western blot analysis

C[C@]1(OC(=O)/C=C/c2ccccc2)C[C@@H](O)[C@]2(O)C=CO[C@@H](O[C@@H]3O[C@H](CO)[C@@H](O)[C@H](O)[C@H]3O)[C@@H]21 [HARPAGOSIDE]
active: inhibition [1] | inhibition [2] | inhibition [3] | inhibition (Osteoclast) Dose-dependent effect | inhibition (Mus musculus [4]) | inhibition [5] | inhibition [6] | inhibition (Mus musculus [7]) | inhibition [8] | inhibition (Mus musculus [9]) | inhibition [11] | inhibition [12] | inhibition [13] Dose-dependent effect | inhibition (Mus musculus [14]) | inhibition [15] Dose-dependent effect | inhibition [16] | inhibition [18] | inhibition (Mus musculus [19]) | inhibition [21] | inhibition (Mus musculus [22]) | inhibition [24] | inhibition [27] | inhibition [30] | inhibition (Mus musculus [31]) | inhibition (Mus musculus [32]) | inhibition [33] | inhibition (Mus musculus [36]) | inhibition [37]
inactive: inhibition (Mus musculus [17]) | inhibition (Mus musculus [20]) | inhibition (Mus musculus [23]) | inhibition (Mus musculus [25]) | inhibition (Mus musculus [26]) | inhibition (Mus musculus [28]) | inhibition (Mus musculus [29]) | inhibition (Mus musculus [34]) | inhibition (Mus musculus [35])
Non-toxic: Activity [10]
